This is an account of results in the NIST ThermoML archive (doi:10.1021/acs.jced.5b00592).

For this series the following is noted: 101.33 kPa, Liquid, Vibrating tube method.

± gives the expanded uncertainty stated by the source.

As a reminder, the mass density is mass per unit of volume. In the case of `CCCCCCCCCCCCn1cc[n+](C)c1.O=S(=O)([N-]S(=O)(=O)C(F)(F)F)C(F)(F)F`, the mass density worked out at 1238.73 ± 1.4 kg/m3 (288.15 K); 1234.45 ± 1.4 kg/m3 (293.15 K); 1230.2 ± 1.4 kg/m3 (298.15 K); 1225.93 ± 1.3 kg/m3 (303.15 K); 1221.7 ± 1.3 kg/m3 (308.15 K); 1217.48 ± 1.3 kg/m3 (313.15 K). Besides, the mass density (318.15 K) is given as 1213.28 ± 1.3 kg/m3; the mass density (323.15 K) is given as 1209.09 ± 1.3 kg/m3; the mass density (328.15 K) was determined as 1204.95 ± 1.3 kg/m3; the mass density (333.15 K) is given as 1200.8 ± 1.3 kg/m3; the mass density (338.15 K) came out at 1196.67 ± 1.3 kg/m3; the mass density (343.15 K) worked out at 1192.54 ± 1.3 kg/m3. Moreover, the mass density is, setting by setting: (348.15 K) 1188.43 ± 1.3 kg/m3; (353.15 K) 1184.33 ± 1.2 kg/m3.
As to `CCCCCCCCn1cc[n+](C)c1.O=S(=O)([N-]S(=O)(=O)C(F)(F)F)C(F)(F)F`, the mass density amounted to 1329.44 ± 0.54 kg/m3 (288.15 K); 1324.99 ± 0.54 kg/m3 (293.15 K); 1320.54 ± 0.53 kg/m3 (298.15 K); 1316.08 ± 0.53 kg/m3 (303.15 K); 1311.64 ± 0.53 kg/m3 (308.15 K); 1307.23 ± 0.52 kg/m3 (313.15 K). Further, the mass density is 1302.82 ± 0.52 kg/m3 (318.15 K); 1298.45 ± 0.52 kg/m3 (323.15 K); 1294.08 ± 0.51 kg/m3 (328.15 K); 1289.73 ± 0.51 kg/m3 (333.15 K); 1285.38 ± 0.51 kg/m3 (338.15 K); 1281.05 ± 0.5 kg/m3 (343.15 K). The mass density by setting is: (348.15 K) 1276.72 ± 0.5 kg/m3; (353.15 K) 1272.41 ± 0.5 kg/m3.
On to `CCCC[n+]1ccn(C)c1.O=S(=O)([N-]S(=O)(=O)C(F)(F)F)C(F)(F)F`, for which the mass density runs as follows: (288.15 K) 1443.95 ± 4 kg/m3; (293.15 K) 1439.13 ± 4 kg/m3; (298.15 K) 1434.32 ± 4 kg/m3; (303.15 K) 1429.51 ± 4 kg/m3; (308.15 K) 1424.73 ± 4 kg/m3; (313.15 K) 1419.98 ± 4 kg/m3. Further, the mass density by setting is: (318.15 K) 1415.23 ± 4 kg/m3; (323.15 K) 1410.5 ± 4 kg/m3; (328.15 K) 1405.78 ± 4 kg/m3; (333.15 K) 1401.09 ± 4 kg/m3; (338.15 K) 1396.41 ± 4 kg/m3; (343.15 K) 1391.74 ± 4 kg/m3. Moreover, the mass density was 1387.07 ± 4 kg/m3 (348.15 K) and 1382.43 ± 4 kg/m3 (353.15 K).
`CCCC[n+]1ccccc1.O=S(=O)([N-]S(=O)(=O)C(F)(F)F)C(F)(F)F` [1-butylpyridinium bis[(trifluoromethyl)sulfonyl]imide]: the mass density was determined as 1457.74 ± 1.9 kg/m3 (288.15 K); 1452.97 ± 1.9 kg/m3 (293.15 K); 1448.23 ± 1.9 kg/m3 (298.15 K); 1443.6 ± 1.9 kg/m3 (303.15 K); 1438.91 ± 1.9 kg/m3 (308.15 K); 1434.25 ± 1.9 kg/m3 (313.15 K). Further, the mass density reads like this: (318.15 K) 1429.62 ± 1.9 kg/m3; (323.15 K) 1425 ± 1.9 kg/m3; (328.15 K) 1420.41 ± 1.8 kg/m3; (333.15 K) 1415.82 ± 1.8 kg/m3; (338.15 K) 1411.23 ± 1.8 kg/m3; (343.15 K) 1406.74 ± 1.8 kg/m3. For the same compound, the mass density by setting is: (348.15 K) 1402.15 ± 1.8 kg/m3; (353.15 K) 1397.61 ± 1.8 kg/m3.
Consider `CCCCCCCCn1cc[n+](C)c1.O=S(=O)([O-])C(F)(F)F` [1-octyl-3-methylimidazolium trifluoromethanesulfonate], for which the mass density (288.15 K) is 1200.83 ± 0.44 kg/m3; the mass density (293.15 K) is reported as 1197.12 ± 0.44 kg/m3; the mass density (298.15 K) amounted to 1193.39 ± 0.43 kg/m3; the mass density (303.15 K) was 1189.64 ± 0.43 kg/m3; the mass density (308.15 K) is reported as 1185.9 ± 0.43 kg/m3; the mass density (313.15 K) is on record as 1182.17 ± 0.43 kg/m3. The mass density runs as follows: (318.15 K) 1178.44 ± 0.42 kg/m3; (323.15 K) 1174.72 ± 0.42 kg/m3; (328.15 K) 1171.02 ± 0.42 kg/m3; (333.15 K) 1167.34 ± 0.42 kg/m3; (338.15 K) 1163.66 ± 0.41 kg/m3; (343.15 K) 1159.99 ± 0.41 kg/m3. For the same compound, the mass density is listed as 1156.33 ± 0.41 kg/m3 (348.15 K) and 1152.68 ± 0.41 kg/m3 (353.15 K).
Turning to `CCC(=O)[O-].C[NH2+]CCO` [2-hydroxy-N-methylethanaminium propionate], the mass density is reported as 1068.13 ± 0.99 kg/m3 (293.15 K); 1061.16 ± 0.97 kg/m3 (303.15 K); 1054.19 ± 0.96 kg/m3 (313.15 K); 1047.12 ± 0.94 kg/m3 (323.15 K); 1039.96 ± 0.93 kg/m3 (333.15 K); 1032.71 ± 0.92 kg/m3 (343.15 K). For the same compound, for the setting “353.15 K”, the mass density came out at 1025.34 ± 0.9 kg/m3.
`CC(=O)[O-].C[NH2+]CCO` [N-methyl-2-hydroxyethylammonium acetate]: the mass density runs as follows: (293.15 K) 1099.6 ± 1.1 kg/m3; (303.15 K) 1093 ± 1 kg/m3; (313.15 K) 1086.4 ± 1 kg/m3; (323.15 K) 1079.7 ± 1 kg/m3; (333.15 K) 1072.9 ± 1 kg/m3; (343.15 K) 1066.1 ± 1 kg/m3. The mass density (353.15 K) was determined as 1059.1 ± 1 kg/m3.
In the case of `CCCC(=O)[O-].C[NH2+]CCO` [N-methyl-2-hydroxyethylammonium butanoate], the mass density (293.15 K) amounted to 1038.03 ± 0.93 kg/m3; the mass density (303.15 K) stood at 1031.04 ± 0.91 kg/m3; the mass density (313.15 K) is listed as 1024.03 ± 0.9 kg/m3; the mass density (323.15 K) is on record as 1016.9 ± 0.88 kg/m3; the mass density (333.15 K) was determined as 1009.68 ± 0.87 kg/m3; the mass density (343.15 K) came to 1002.38 ± 0.86 kg/m3. Besides, under “353.15 K”, the mass density is on record as 994.97 ± 0.84 kg/m3.
